Consider 21 molecules from patent publication US20260191858A1, “COMBINATION THERAPIES” (Kallyope, Inc., priority 2022, published 2026).

In general, pEC50 refers to the EC50 on a negative log10 scale, so that one unit is a factor of ten. A high value points to a low EC50.

The target of this test is T1, human GPR119 (hGPR119) (Homo sapiens, UniProt Q8TDV5).
T1 construct: expressed in transfected cells; host or cells: CHO-K1
T1 sequence (Q8TDV5 1-335): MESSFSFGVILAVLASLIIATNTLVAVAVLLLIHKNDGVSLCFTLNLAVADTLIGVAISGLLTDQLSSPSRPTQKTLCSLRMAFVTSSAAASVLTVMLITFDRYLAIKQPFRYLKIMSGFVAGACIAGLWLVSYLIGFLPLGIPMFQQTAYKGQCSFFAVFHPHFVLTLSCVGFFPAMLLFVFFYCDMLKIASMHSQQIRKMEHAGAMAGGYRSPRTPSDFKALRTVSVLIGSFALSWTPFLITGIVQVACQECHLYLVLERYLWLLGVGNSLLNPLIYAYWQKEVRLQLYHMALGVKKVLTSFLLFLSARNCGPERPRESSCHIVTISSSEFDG
Put plainly: cAMP accumulation assay in CHO-K1 cells stably expressing hGPR119. Format: cell-based. To be noted: cAMP HTRF, 60 minutes. How it is done: CHO-K1 cells stably expressing human GPR119 (hGPR119) were prepared by transfection of a GPR119-carrying plasmid using Lipofectamine 2000 (following manufacturer instructions). A stable cell line was established using the limiting dilution method with geneticine selection. Assay-ready frozen (ARF) cells were prepared and used throughout the study.
The assay was performed in a 384-well plate format using the CAMP Gs dynamic assay kit from Cisbio. ARF cells expressing hGPR119 were thawed, washed and then resuspended in CAMP stimulation buffer at a cell density of 1.1×10^6 cells/mL. Cells were plated at a density of ~10,000 cells/well (9 μL/well). Dose response curves for the tested compounds were prepared in a cAMP stimulation buffer, containing 0.1% Tween 80 at 4 fold the final concentration. The compounds were then transferred to the cell plates using BRAVO (3 μL/well) and the plates were incubated for 60 minutes at 37° C./5% CO2. Detection buffer (10 μL, prepared as described in the CAMP Gs dynamic kit) were added to each well, and the plates were incubated at ambient temperature for 1 hr.
RT-FRET was measured using a ClarioSTAR plate reader, calculating the ratio between emissions at 665 nm and 620 nm (HTRF ratio). The HTRF ratio for positive (Max) and negative (Min) controls were used to normalize HTRF data and generate values for % activity. EC50 and Max activity values were determined using a standard 4-parameter fit.
On the technique in general: Changes in cAMP serve as a functional read-out for many G protein-coupled receptors.

pEC50: −log10 of the molar value. Bounds are passed on as bounds.

As for `O=C(Cc1ccc(OCCCC2CCN(c3ncc(Cl)cn3)CC2)cc1F)N1CC(CN2C[C@@H](O)[C@@H](O)C2)C1` [Compound A20, 2-[4-[3-[1-(5-chloropyrimidin-2-yl)-4-piperidyl]propoxy]-2-fluoro-phenyl]-1-[3-[rac-(3S,4R)-3,4-dihydroxypyrrolidin-1-yl]methyl]azetidin-1-yl]ethanone], the pEC50 was ≥ 7.00.
As for `O=C(Cc1ccc(OCCCC2CCN(c3ncc(Cl)cn3)CC2)cc1F)N1CC(CN2C[C@@H](O)[C@@H](O)[C@@H](O)C2)C1` [Compound A22, 2-[4-[3-[1-(5-chloropyrimidin-2-yl)-4-piperidyl]propoxy]-2-fluoro-phenyl]-1-[3-[[rac-(3R,5S)-3,4,5-trihydroxy-1-piperidyl]methyl]azetidin-1-yl]ethanone], the pEC50 is ≥ 7.00.
Consider `O=C(Cc1ccc(OCCCC2CCN(c3ncc(Cl)cn3)CC2)cc1F)N1CC(CNCCOCCOCCO)C1` [Compound A23], for which the negative-log EC50 (pEC50) is ≥ 7.00.
`NCCOCCOCCNCC1CN(C(=O)Cc2ccc(OCCCC3CCN(c4ncc(Cl)cn4)CC3)cc2F)C1` [Compound A24, 1-[3-[[2-[2-(2-aminoethoxy)ethoxy]ethylamino]methyl]azetidin-1-yl]-2-[4-[3-[1-(5-chloropyrimidin-2-yl)-4-piperidyl]propoxy]-2-fluoro-phenyl]ethanone]: the negative logarithm of the EC50 (pEC50) is 6.00 to 7.00.
For the molecule `O=C(Cc1c(F)cc(OCCCC2CCN(c3ncc(Cl)cn3)CC2)cc1F)N1CC(CNC[C@H](O)[C@@H](O)[C@H](O)[C@H](O)CO)C1` [Compound A25, 2-[4-[3-[1-(5-chloropyrimidin-2-yl)-4-piperidyl]propoxy]-2,6-difluoro-phenyl]-1-[3-[[[(2S,3R,4R,5R)-2,3,4,5,6-pentahydroxyhexyl]amino]methyl]azetidin-1-yl]ethanone], the negative-log EC50 (pEC50) is ≥ 7.00.
For `O=C(Cc1ccc(OCCCC2CCN(c3ncc(Cl)cn3)CC2)cc1F)N1CC(CCNC(CO)CO)C1` [Compound A26, 2-(4-(3-(1-(5-chloropyrimidin-2-yl)piperidin-4-yl)propoxy)-2-fluorophenyl)-1-(3-(2-((1,3-dihydroxypropan-2-yl)amino)ethyl)azetidin-1-yl)ethan-1-one] the value was ≥ 7.00.
In the case of `O=C(Cc1ccc(OCCCC2CCN(c3ncc(Cl)cn3)CC2)cc1F)N1CC(CCNCC(CO)CO)C1` [Compound A27, 2-(4-(3-(1-(5-chloropyrimidin-2-yl)piperidin-4-yl)propoxy)-2-fluorophenyl)-1-(3-(2-((3-hydroxy-2-(hydroxymethyl)propyl)amino)ethyl)azetidin-1-yl)ethan-1-one], the pEC50 is ≥ 7.00.
`O=C(Cc1ccc(OCCCC2CCN(c3ncc(Cl)cn3)CC2)cc1F)N1CC(CCNCC(O)(CO)CO)C1` [Compound A28, 2-(4-(3-(1-(5-chloropyrimidin-2-yl)piperidin-4-yl)propoxy)-2-fluorophenyl)-1-(3-(2-((2,3-dihydroxy-2-(hydroxymethyl)propyl)amino)ethyl)azetidin-1-yl)ethan-1-one] gave a pEC50 of 6.00 to 7.00.
For `O=C(Cc1ccc(OCCCC2CCN(c3ncc(Cl)cn3)CC2)cc1F)N1CC(CCNC(CO)(CO)CO)C1` [Compound A29, 2-(4-(3-(1-(5-chloropyrimidin-2-yl)piperidin-4-yl)propoxy)-2-fluorophenyl)-1-(3-(2-((1,3-dihydroxy-2-(hydroxymethyl)propan-2-yl)amino)ethyl)azetidin-1-yl)ethan-1-one] the value was 6.00 to 7.00.
For the molecule `O=C(NCCNCCC1CN(C(=O)Cc2ccc(OCCCC3CCN(c4ncc(Cl)cn4)CC3)cc2F)C1)NC(CO)(CO)CO` [Compound A30, 1-(2-((2-(1-(2-(4-(3-(1-(5-chloropyrimidin-2-yl)piperidin-4-yl)propoxy)-2-fluorophenyl)acetyl)azetidin-3-yl)ethyl)amino)ethyl)-3-(1,3-dihydroxy-2-(hydroxymethyl)propan-2-yl)urea], the pEC50 is 6.00 to 7.00.
Regarding `O=C(Cc1ccc(OCCCC2CCN(c3ncc(Cl)cn3)CC2)cc1F)N1CC(CCNC[C@H](O)[C@@H](O)[C@H](O)[C@H](O)CO)C1` [Compound A31, 2-[4-[3-[1-(5-chloropyrimidin-2-yl)-4-piperidyl]propoxy]-2-fluoro-phenyl]-1-[3-[2-[[(2S,3R,4R,5R)-2,3,4,5,6-pentahydroxyhexyl]amino]ethyl]azetidin-1-yl]ethanone], the pEC50 is 6.00 to 7.00.
For `CCc1cnc(N2CCC(CCCOc3ccc(CC(=O)N4CC(CNCC(CO)CO)C4)c(F)c3)CC2)nc1` [Compound A32, 2-(4-(3-(1-(5-ethylpyrimidin-2-yl)piperidin-4-yl)propoxy)-2-fluorophenyl)-1-(3-(((3-hydroxy-2-(hydroxymethyl)propyl)amino)methyl)azetidin-1-yl)ethan-1-one] the value was 6.00 to 7.00.
With `CCc1cnc(N2CCC(CCCOc3ccc(CC(=O)N4CC(CNCC(O)(CO)CO)C4)c(F)c3)CC2)nc1` [Compound A33, 1-(3-(((2,3-dihydroxy-2-(hydroxymethyl)propyl)amino)methyl)azetidin-1-yl)-2-(4-(3-(1-(5-ethylpyrimidin-2-yl)piperidin-4-yl)propoxy)-2-fluorophenyl)ethan-1-one], the pEC50 was ≥ 7.00.
With `CCc1cnc(N2CCC(CCCOc3ccc(CC(=O)N4CC(CNC(CO)(CO)CO)C4)c(F)c3)CC2)nc1` [Compound A34, 1-(3-(((1,3-dihydroxy-2-(hydroxymethyl)propan-2-yl)amino)methyl)azetidin-1-yl)-2-(4-(3-(1-(5-ethylpyrimidin-2-yl)piperidin-4-yl)propoxy)-2-fluorophenyl)ethan-1-one], the negative logarithm of the EC50 (pEC50) was ≥ 7.00.
`CCc1cnc(N2CCC(CCCOc3ccc(CC(=O)N4CC(CNCCNC(=O)NC(CO)(CO)CO)C4)c(F)c3)CC2)nc1` [Compound A35, 1-(1,3-dihydroxy-2-(hydroxymethyl)propan-2-yl)-3-(2-(((1-(2-(4-(3-(1-(5-ethylpyrimidin-2-yl)piperidin-4-yl)propoxy)-2-fluorophenyl)acetyl)azetidin-3-yl)methyl)amino)ethyl)urea]: the pEC50 was ≥ 7.00.
`CCc1cnc(N2CCC(CCCOc3cc(F)c(CC(=O)N4CC(CNCC(O)(CO)CO)C4)c(F)c3)CC2)nc1` [Compound A37, 1-(3-(((2,3-dihydroxy-2-(hydroxymethyl)propyl)amino)methyl)azetidin-1-yl)-2-(4-(3-(1-(5-ethylpyrimidin-2-yl)piperidin-4-yl)propoxy)-2,6-difluorophenyl)ethan-1-one]: the pEC50 was ≥ 7.00.
Take `CCc1cnc(N2CCC(CCCOc3cc(F)c(CC(=O)N4CC(CNCCNC(=O)NC(CO)(CO)CO)C4)c(F)c3)CC2)nc1` [Compound A38, 1-(1,3-dihydroxy-2-(hydroxymethyl)propan-2-yl)-3-(2-(((1-(2-(4-(3-(1-(5-ethylpyrimidin-2-yl)piperidin-4-yl)propoxy)-2,6-difluorophenyl)acetyl)azetidin-3-yl)methyl)amino)ethyl)urea]: the pEC50 was ≥ 7.00.
In the case of `CCCc1cnc(N2CCC(CCCOc3ccc(CC(=O)N4CC(CNCC(CO)CO)C4)c(F)c3)CC2)nc1` [Compound A40, 2-(2-fluoro-4-(3-(1-(5-propylpyrimidin-2-yl)piperidin-4-yl)propoxy)phenyl)-1-(3-(((3-hydroxy-2-(hydroxymethyl)propyl)amino)methyl)azetidin-1-yl)ethan-1-one], the pEC50 is ≥ 7.00.
For `CCCc1cnc(N2CCC(CCCOc3ccc(CC(=O)N4CC(CNCC(O)(CO)CO)C4)c(F)c3)CC2)nc1` [Compound A41, 1-(3-(((2,3-dihydroxy-2-(hydroxymethyl)propyl)amino)methyl)azetidin-1-yl)-2-(2-fluoro-4-(3-(1-(5-propylpyrimidin-2-yl)piperidin-4-yl)propoxy)phenyl)ethan-1-one], the negative-log EC50 (pEC50) is ≥ 7.00.
For `CCCc1cnc(N2CCC(CCCOc3ccc(CC(=O)N4CC(CNC(CO)(CO)CO)C4)c(F)c3)CC2)nc1` [Compound A42, 1-(3-(((1,3-dihydroxy-2-(hydroxymethyl)propan-2-yl)amino)methyl)azetidin-1-yl)-2-(2-fluoro-4-(3-(1-(5-propylpyrimidin-2-yl)piperidin-4-yl)propoxy)phenyl)ethan-1-one] the value was ≥ 7.00; for `CCCc1cnc(N2CCC(CCCOc3ccc(CC(=O)N4CC(CNCCNC(=O)NC(CO)(CO)CO)C4)c(F)c3)CC2)nc1` [Compound A43, 1-(1,3-dihydroxy-2-(hydroxymethyl)propan-2-yl)-3-(2-(((1-(2-(2-fluoro-4-(3-(1-(5-propylpyrimidin-2-yl)piperidin-4-yl)propoxy)phenyl)acetyl)azetidin-3-yl)methyl)amino)ethyl)urea], 6.00 to 7.00.
